Test results taken from patent US8669247B2, “2,5-disubstituted arylsulfonamide CCR3 antagonists” (Axikin Pharmaceuticals, Inc., priority 2009, dated 2014).

Assays:
CCR3 receptor = molecular target: T1, CCR3 receptor (UniProt P51677); assay: CCR3 Receptor Binding Assay ([125I]-labeled human eotaxin/CCL11 displacement on cells); conditions: Free (free form of the compound)
T1 sequence (P51677 1-355): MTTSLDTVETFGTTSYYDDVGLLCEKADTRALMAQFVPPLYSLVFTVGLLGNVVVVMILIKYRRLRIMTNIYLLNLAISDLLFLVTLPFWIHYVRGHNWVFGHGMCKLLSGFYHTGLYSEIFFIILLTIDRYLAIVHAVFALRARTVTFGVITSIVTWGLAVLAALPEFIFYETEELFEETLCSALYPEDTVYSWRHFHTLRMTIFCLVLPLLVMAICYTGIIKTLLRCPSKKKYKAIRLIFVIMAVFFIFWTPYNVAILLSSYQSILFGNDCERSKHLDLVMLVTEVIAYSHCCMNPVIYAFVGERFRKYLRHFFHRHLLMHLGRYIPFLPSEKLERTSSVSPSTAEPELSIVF
Description: Cells were washed once with PBS and resuspended in a binding buffer (25 mM HEPES pH 7.6, 5 mM MgCl2, 1 mM CaCl2, 0.5% BSA, 0.1% NaN3), […] of cell suspension (2×10^5 cells/well) and 0.1 nM [^125I]-labeled human eotaxin/CCL11 (2000 Ci/mmol specific activity) were mixed in a 96-well U-bottom polypropylene plate, and incubated for 60 min at room temperature for the binding reaction. The cell suspension was then transferred to a filtration plate (#MAFB, Millipore), and washed 3 times with the binding buffer containing 0.5 M NaCl, scintillant added, and the radioactivity was counted on a TopCount (Packard). For the determination of non-specific binding, the cell suspension and [^125I]-labeled human eotaxin/CCL11 were incubated in the presence of 500 nM of unlabeled human eotaxin/CCL11. See, lino et al., “Molecular cloning and functional characterization of cynomolgus monkey (Macaca fascicularis) CC chemokine receptor, CCR3,” Cytokine 2002, 19, 276-286.

Structure (SMILES)	Ki (CCR3 receptor) [µM]	melting point [°C]
Cc1ccc(C)c(Sc2ccc([N+](=O)[O-])cc2S(=O)(=O)N2CCOCC2)c1 [Compound 112, 4-(2-(2,5-Dimethylphenylthio)-5-nitrophenylsulfonyl)morpholine]	> 0.005	141 to 143
N#Cc1ccc(Oc2cc(F)ccc2F)c(S(=O)(=O)N2CCOCC2)c1 [Compound 58, 4-(2,5-Difluorophenoxy)-3-(morpholinosulfonyl)benzonitrile]	> 0.005	165 to 168
O=[N+]([O-])c1ccc(Sc2cc(Cl)ccc2Cl)c(S(=O)(=O)N2CCNCC2)c1 [Compound 123, 1-(2-(2,5-Dichlorophenylthio)-5-nitrophenylsulfonyl)piperazine]	0.01 to 0.025	150 to 153
N#Cc1ccc(Sc2cc(Cl)ccc2Cl)c(S(=O)(=O)N2CCOCC2)c1 [Compound 82, 4-(2,5-Dichlorophenylthio)-3-(morpholinosulfonyl)benzonitrile]	0.1 to 0.5	216 to 219
O=[N+]([O-])c1ccc(Sc2cc(Cl)ccc2Cl)c(S(=O)(=O)N2CCSCC2)c1 [Compound 114, 4-(2-(2,5-Dichlorophenylthio)-5-nitrophenylsulfonyl)thiomorpholine]	> 0.005	189 to 191

More lines, now with the values ahead:

Ki (CCR3 receptor) [µM]	melting point [°C]	Structure (SMILES)
0.01 to 0.025	161 to 163	CC1CN(S(=O)(=O)c2cc([N+](=O)[O-])ccc2Oc2cc(Cl)ccc2Cl)CC(C)N1 (stereo not shown) [Compound 104, 1-(2-(2,5-Dichlorophenoxy)-5-nitrophenylsulfonyl)-3,5-dimethylpiperazine]
> 0.005	144 to 147	Cc1ccc(C)c(Oc2ccc([N+](=O)[O-])cc2S(=O)(=O)N2CCSCC2)c1 [Compound 117, 4-(2-(2,5-Dimethylphenoxy)-5-nitrophenylsulfonyl)thiomorpholine]
0.1 to 0.5	142 to 145	Cc1ccc(C)c(Sc2ccc([N+](=O)[O-])cc2S(=O)(=O)N2CCNCC2)c1 [Compound 122, 1-(2-(2,5-Dimethylphenylthio)-5-nitrophenylsulfonyl)piperazine]
> 0.005	124 to 127	Cc1ccc(C)c(Oc2ccc([N+](=O)[O-])cc2S(=O)(=O)N2CCOCC2)c1 [Compound 113, 4-(2-(2,5-Dimethylphenoxy)-5-nitrophenylsulfonyl)morpholine]
> 0.005	168 to 170	O=[N+]([O-])c1ccc(Oc2cc(Cl)ccc2Cl)c(S(=O)(=O)N2CCOCC2)c1 [Compound 111, 4-(2-(2,5-Dichlorophenoxy)-5-nitrophenylsulfonyl)morpholine]
> 0.005	182 to 186	O=[N+]([O-])c1ccc(Sc2cc(Cl)ccc2Cl)c(S(=O)(=O)N2CCOCC2)c1 [Compound 110, 4-(2-(2,5-Dichlorophenylthio)-5-nitrophenylsulfonyl)morpholine]
